Results: US10881642B2, “Autophagy enhancer and use thereof” (Industry-Academic Cooperation Foundation, Yonsei University, priority 2016, dated 2021)
Peptide text beside a SMILES is read from it. * marks the point of attachment. βNA = c1ccc2cc(N*)ccc2c1

Test system: HeLa cells
Assay: GCaMP3-ML1 lysosomal Ca2+ release imaging
Type: cell-based
Conditions: GPN 200 μM; ionomycin 1 μM
Experimental: HeLa cells were transfected with perilysosomal GCaMP3-ML1 calcium probe, and Ratiometric image (474 and 410 nm excitation) was obtained.
GCaMP3 Ca2+ Imaging. HeLa cells were grown on 15 mm coverslips and transfected with plasmid encoding the perilysosomal-localized ML1-GCaMP3 calcium probes.

| Structure (SMILES) | lysosomal Ca2+ release |
| --- | --- |
| NCC(=O)N[C@@H](Cc1ccccc1)C(=O)Nc1ccc2ccccc2c1 [GPN] (H-Gly-Phe-βNA) | induced lysosomal Ca2+ release |
| C[C@H](CCC(=O)O)C[C@H](C)C[C@H](C)C(=O)/C=C(\O)[C@H](C)C[C@H](C)C/C=C/[C@@H](C)[C@@H](O)[C@@H](C)[C@@H](O)C[C@@H]1CC[C@@](C)([C@H]2CC[C@@](C)([C@@H](C)O)O2)O1 [ionomycin] | induced lysosomal Ca2+ release |
